Where a SMILES comes first, the peptide text is derived from it. Where no end group is shown, it is not given here. [ ]: non-standard residue; d: D form. The star is where a group is joined. Phe(4-N(CH2CH2Cl)2) = N[C@@H](Cc1ccc(N(CCCl)CCCl)cc1)C(=O)O; 5FAM = O=C1OC2(c3ccc(O)cc3Oc3cc(O)ccc32)c2ccc(C(=O)*)cc21

In data set [1] the test system is 9L-Luc gliosarcoma cells. Put plainly: In vitro cytotoxicity (BrdU and bioluminescence assays). As to conditions: 1-100 μM, 1-hour exposure, viability at 24 hours. Type of data set: cell-based. On the procedure:
In vitro cytotoxicity studies and uptake analysis. […] 9L luciferase-expressing (9L-Luc) gliosarcoma cells (provided by Dr. Brian Ross University of Michigan, Ann Arbor) were incubated in a 96 well plate and grown to 95% confluence. 9L-Luc cells were cultured in Delbecco's Modified Eagle Medium (DMEM) with fetal bovine serum (10%), streptomycin ([…]) and penicillin (100 U/ml) and 1-glutamine 2 mM in an atmosphere 95/5% O2 and CO2 with 100% humidity. They were exposed to 1, 10, and 100 μM of the compound for 1-hour and assessed for viability at 24 hours. Data for all three assays was normalized to the survival of untreated cells. Assays were run in triplicate and fluorescence values were averaged for each treatment. The 3% hydrogen peroxide treated cells provided positive controls.

For data set [2], the system named is 9L cells. The following applies: one hour exposure, MTT and BrdU assays after 7 days. The protocol: Cytotoxicity Study. 9L cells were grown to confluence in 96-well plates. Individual wells were exposed to no treatment or increasing concentrations of melphalan, TAT monomer, melphalan-conjugated TAT monomer (obtained from a supplier) or melphalan-conjugated TAT dimer (obtained from a supplier). Cells were incubated under these conditions for one hour. Growth factors were then reintroduced and the cells were grown for a week with standard periodic care. After 7 days, MTT and BrdU assays were used to assess cell viability. All tests were done in quadruplicate and data normalized to the untreated group. […] IV injection of the […]

Data set [3] deals with 9L-gliosarcoma cells. Put plainly: Membrane fluidity with beta-cyclodextrin cholesterol depletion. Type of data set: cell-based. The following applies: 4° C. and 37° C., FIG. 33C. On the procedure:
9L-gliosarcoma cells were grown to confluence in T-75 in recommended culture media. Membrane fluidity was determined by using commercially available “Gene Marker” kit. Fluorescein tagged TAT was used for determining uptake of the cell penetrating peptide. To alter membrane fluidity TAT uptake was determined at different temperatures of 4° C., 15° C. 25° C., 35° C. and 37° C.
The role of cholesterol in affecting membrane fluidity was then assessed. Cholesterol content of the membrane was measured using the commercially available Fillipin-III assay. Beta-cyclodextrin was used to deplete membrane cholesterol. The effect of cyclodextrin on TAT uptake of 100 μL at 0.1 mg/mL for 10 minutes at different temperatures was then assessed. Fluorescence was assessed by flow cytometry and confocal imaging was performed as needed.

Data set [4] concerns 9L glioma tumor. Put plainly: In vivo uptake of TAT dimer versus monomer by IA-TCH (MSI and confocal imaging). On the set-up: species or system rat. The following applies: dimer 0.25 mg, monomer 0.125 mg, five rats each. On the procedure:
An additional experiment was performed to assess the in vivo uptake of fluorescein-labeled TAT dimer by IA-TCH. About 14 days after 9L glioma tumor implantation, rats were anesthetized and prepared for TAT dimer delivery experiments. TAT dimer was conjugated with fluorescein such that its concentrations in post mortem samples could be determined immediately by multispectral imaging and confocal imaging. TAT dimer (0.25 mg) and monomer (0.125 mg) were tested using IA-TCH delivery both containing equal amounts of fluorescein were evaluated. […] Animals were sacrificed 15 minutes after TAT injection. Brain tissue was harvested.

Data set [5] has as its system 9L glioma. Put plainly: Survival after IA-TCH delivery of melphalan or melphalan-conjugated TAT. The class given is in vivo, rat. As to conditions: for Bleeding events: IA-TCH. On the procedure:
Thirteen 9L glioma-implanted anesthetized rats were intubated and ventilated. The carotid artery of each rat was exposed and cannulated but the ICA was not isolated to minimize surgical trauma. The rats were subjected to delivery of melphalan with adenosine, esmolol and cold saline via IA-TCH. Six rats received 0.25 mg of melphalan, three rats received 0.5 mg melphalan and one rat received 1 mg of melphalan. Remaining rats were either treated with saline or left untreated. After the IA-TCH injection, rats were allowed to recover and sacrificed when pre-determined criteria were met.
A similar procedure was performed on seven 9L glioma-implanted rats using melphalan-conjugated TAT monomer at a dose of 1 mg (0.16 mg melphalan content). However, the ICA was isolated with an aneurysm clip. Survival of the rats was monitored and images of the brains of the rats were obtained by MRI. The same procedure was performed using 5 rats with melphalan-conjugated TAT dimer at a dose of 1 mg (0.08 mg melphalan content).

The nature of data set [6]: Delivery of cell-penetrating peptides to the brain of healthy rats, confocal microscopy. Type of data set: in vivo, rat. As to conditions: rat, in vivo. From the text:
Animal preparation, IA-TCH injection, and brain tumor implantation. Animal protocols were approved by the Columbia University Institutional Animal Care and Use Committee (IACUC). Studies were primarily conducted on Sprague-Dawley rats weighing 250 to 300 grams. In the case of electron multiplying charge-coupled device imaging studies, Fisher 344 rats implanted with 9L brain tumors were utilized. The surgical preparation including anesthesia, carotid and femoral cannulation, cerebral blood flow and vital sign monitoring, as well as in vivo fluorescence imaging have been previously described in detail.
IA injections of cell-penetrating peptides (CPPs) were made during TCH as 65 μL pulses totaling 1 ml in volume. TCH was produced by a bolus injection of adenosine, esmolol, and cold saline. Animals were allowed to hemodynamically recover from TCH and euthanized 10 minutes after injection. Uptake of CPPs was assessed with a fluorescence camera and with confocal fluorescence microscopy.
Cell-penetrating peptides. Two experimental cell-penetrating peptides were tested: 1. octaarginine, also called (Arg)8 or R-8 (SEQ ID NO: 13) and 2. trans-activator of transcription or TAT (Lifetien Inc.). The 14 amino acid peptide sequence for TAT is […]COOH (SEQ ID NO: 11). Both cell-penetrating peptides (CPPs) were labeled with fluorescein so that their distribution could be identified by multispectral imaging and with fluorescence microscopy of the frozen brain sections.
Fluorescence and electron multiplying charge-coupled device imaging.

For the molecule `COc1cccc2c1C(=O)c1c(O)c3c(c(O)c1C2=O)C[C@@](O)(C(=O)CO)C[C@@H]3O[C@H]1C[C@H](N)[C@H](O)[C@H](C)O1` [Dox, Doxorubicin], in data set [1], the “Relative toxicity (cellular viability)” value was “highest toxicity”.
For the molecule `N=C(N)NCCC[C@H](NC(=O)CN)C(=O)N[C@@H](CCCCN)C(=O)N[C@@H](CCCCN)C(=O)N[C@@H](CCCNC(=N)N)C(=O)N[C@@H](CCCNC(=N)N)C(=O)N[C@@H](CCC(N)=O)C(=O)N[C@@H](CCCNC(=N)N)C(=O)N[C@@H](CCCNC(=N)N)C(=O)N[C@@H](CCCNC(=N)N)C(=O)N1CCC[C@H]1C(=O)N1CCC[C@H]1C(=O)N[C@@H](CCC(N)=O)C(=O)N[C@@H](CCC(N)=O)C(=O)O` [TAT monomer], in data set [2], the “Relative cytotoxicity (cell viability)” value is recorded as “cytotoxicity increases from TAT monomer to melphalan-conjugated TAT monomer to melphalan-conjugated TAT dimer to melphalan alone”.
Take `OC[C@H]1O[C@@H]2O[C@H]3[C@H](O)[C@@H](O)[C@@H](O[C@H]4[C@H](O)[C@@H](O)[C@@H](O[C@H]5[C@H](O)[C@@H](O)[C@@H](O[C@H]6[C@H](O)[C@@H](O)[C@@H](O[C@H]7[C@H](O)[C@@H](O)[C@@H](O[C@H]8[C@H](O)[C@@H](O)[C@@H](O[C@H]1[C@H](O)[C@H]2O)O[C@@H]8CO)O[C@@H]7CO)O[C@@H]6CO)O[C@@H]5CO)O[C@@H]4CO)O[C@@H]3CO` [beta-cyclodextrin]: in data set [3], the “Effect on membrane fluidity” value is “increased fluidity at higher temperatures (37° C.) than at lower temperature (4° C.) in a dose-dependent manner”.
As to `N=C(N)NCCC[C@H](NC(=O)CNC(=O)[C@H](CCC(N)=O)NC(=O)[C@H](CCC(N)=O)NC(=O)[C@@H]1CCCN1C(=O)[C@@H]1CCCN1C(=O)[C@H](CCCNC(=N)N)NC(=O)[C@H](CCCNC(=N)N)NC(=O)[C@H](CCCNC(=N)N)NC(=O)[C@H](CCC(N)=O)NC(=O)[C@H](CCCNC(=N)N)NC(=O)[C@H](CCCNC(=N)N)NC(=O)[C@H](CCCCN)NC(=O)[C@H](CCCCN)NC(=O)[C@H](CCCNC(=N)N)NC(=O)CNC(=O)c1ccc2c(c1)C(=O)OC21c2ccc(O)cc2Oc2cc(O)ccc21)C(=O)N[C@@H](CCCCN)C(=O)N[C@@H](CCCCN)C(=O)N[C@@H](CCCNC(=N)N)C(=O)N[C@@H](CCCNC(=N)N)C(=O)N[C@@H](CCC(N)=O)C(=O)N[C@@H](CCCNC(=N)N)C(=O)N[C@@H](CCCNC(=N)N)C(=O)N[C@@H](CCCNC(=N)N)C(=O)N1CCC[C@H]1C(=O)N1CCC[C@H]1C(=O)N[C@@H](CCC(N)=O)C(=O)N[C@@H](CCC(N)=O)C(=O)O` [fluorescein-labeled TAT dimer, 5-FAM-GRKKRRQRRR PPQQGRKKRR QRRRPPQQ-COOH] (5FAM-GRKKRRQRRRPPQQGRKKRRQRRRPPQQ-OH), in data set [4], the Tumor selective delivery entry is “able to achieve tumor selective drug delivery”.
As to `N[C@@H](Cc1ccc(N(CCCl)CCCl)cc1)C(=O)O` [melphalan, Melphalan, reference compound], the “Relative cytotoxicity (cell viability)” value in data set [2] is “cytotoxicity increases from TAT monomer to melphalan-conjugated TAT monomer to melphalan-conjugated TAT dimer to melphalan alone”. Besides, in data set [5] (0.25, 0.5, 1 mg IA-TCH), the “Dose group with peak survival” value is “peak survival was found in the 0.25 mg melphalan group”. For the same molecule, the Bleeding events entry in data set [5] is recorded as “significant bleeding”. Also, in data set [5] (melphalan 0.25, 0.5 or 1 mg IA-TCH, p=0.07 versus controls), the Survival is 30 ± 8 days.
Consider `N=C(N)NCCC[C@H](NC(=O)CNC(=O)[C@H](CCC(N)=O)NC(=O)[C@H](CCC(N)=O)NC(=O)[C@@H]1CCCN1C(=O)[C@@H]1CCCN1C(=O)[C@H](CCCNC(=N)N)NC(=O)[C@H](CCCNC(=N)N)NC(=O)[C@H](CCCNC(=N)N)NC(=O)[C@H](CCC(N)=O)NC(=O)[C@H](CCCNC(=N)N)NC(=O)[C@H](CCCNC(=N)N)NC(=O)[C@H](CCCCN)NC(=O)[C@H](CCCCN)NC(=O)[C@H](CCCNC(=N)N)NC(=O)CNC(=O)[C@@H](N)Cc1ccc(N(CCCl)CCCl)cc1)C(=O)N[C@@H](CCCCN)C(=O)N[C@@H](CCCCN)C(=O)N[C@@H](CCCNC(=N)N)C(=O)N[C@@H](CCCNC(=N)N)C(=O)N[C@@H](CCC(N)=O)C(=O)N[C@@H](CCCNC(=N)N)C(=O)N[C@@H](CCCNC(=N)N)C(=O)N[C@@H](CCCNC(=N)N)C(=O)N1CCC[C@H]1C(=O)N1CCC[C@H]1C(=O)N[C@@H](CCC(N)=O)C(=O)N[C@@H](CCC(N)=O)C(=O)O` [melphalan-conjugated TAT dimer] (H-[Phe(4-N(CH2CH2Cl)2)]GRKKRRQRRRPPQQGRKKRRQRRRPPQQ-OH), for which the “Relative cytotoxicity (cell viability)” value in data set [2] is reported as “cytotoxicity increases from TAT monomer to melphalan-conjugated TAT monomer to melphalan-conjugated TAT dimer to melphalan alone”. The Bleeding events entry in data set [5] was “No significant bleeding events”.
`N=C(N)NCCC[C@H](NC(=O)CNC(=O)[C@@H](N)Cc1ccc(N(CCCl)CCCl)cc1)C(=O)N[C@@H](CCCCN)C(=O)N[C@@H](CCCCN)C(=O)N[C@@H](CCCNC(=N)N)C(=O)N[C@@H](CCCNC(=N)N)C(=O)N[C@@H](CCC(N)=O)C(=O)N[C@@H](CCCNC(=N)N)C(=O)N[C@@H](CCCNC(=N)N)C(=O)N[C@@H](CCCNC(=N)N)C(=O)N1CCC[C@H]1C(=O)N1CCC[C@H]1C(=O)N[C@@H](CCC(N)=O)C(=O)N[C@@H](CCC(N)=O)C(=O)O` [melphalan-conjugated TAT monomer]: in data set [2], the “Relative cytotoxicity (cell viability)” value is reported as “cytotoxicity increases from TAT monomer to melphalan-conjugated TAT monomer to melphalan-conjugated TAT dimer to melphalan alone”. For the same molecule, the Tolerability result in data set [5] (1 mg IA-TCH) is reported as “well tolerated”. Also, the Bleeding events result in data set [5] is “Only one of seven animals showed some evidence of a tail bleed”.
With “octaarginine (RRRRRRRR; also: FITC label, position not given here) [FITC labeled R8, reference compound]”, in data set [6], the Deposition by hemisphere result was “detectable deposition preferentially to the hemisphere ipsilateral to carotid injection”; the “Distribution in the brain (semi-quantitative)” value is “more discrete and predominantly within vessel walls”.
